In PubChem BioAssay AID504419 (The Scripps Research Institute Molecular Screening Center, 2011):
“And” between values parts separate entries of the source, which are not always exact repeats. Identical values can stand only once. The source made the active and inactive calls. The rule behind the calls is not given here.

Assays:
NS3h 1b (con1) = experiment: NS3 helicase inhibitors across HCV genotypes, late-stage follow-up, selectivity assay for HCV NS3 helicase inhibitor project, biochemical, real-time fluorescence, genotypes 2a and 1b, Set 2 (AID 504419); details: Recombinant NS3 helicase, real-time fluorescence unwinding
NS3h 2a (JFH1) = experiment: as above; details: Recombinant NS3 helicase, real-time fluorescence unwinding

Row | IC50 (NS3h 1b (con1)) | IC50 (NS3h 2a (JFH1)) | Compound
1 | > 100 µM (inactive) | > 100 µM (inactive) | COc1cc2oc(=O)cc(-c3ccc(-c4ccc(NC(C)=O)cc4)cc3)c2c(OC)c1OC
2 | > 100 µM (inactive) | > 100 µM (inactive) | CNc1ccc(Br)cc(C(=O)/C=C/c2cc(OC)ccc2OC)c1=O
3 | > 100 µM (inactive) | > 100 µM (inactive) | COc1cc(OC)c2ccc(=O)oc2c1[C@H](CCN1CCN(c2ccccc2)CC1)c1ccc(N(C)C)cc1
4 | > 100 µM (inactive) | > 100 µM (inactive) | Cc1cc(N2C(=O)C(O)=C(C(=O)c3ccc(C)o3)C2c2cccc(Cl)c2)no1 (stereo not given)
5 | 1.76 µM | 2.51 µM | Cc1ccc2nc(-c3ccc4nc(-c5ccc(NC(=O)c6ccc(C(F)(F)F)cc6)cc5)sc4c3)sc2c1S(=O)(=O)O
6 | > 100 µM (inactive) | > 100 µM (inactive) | CCOc1ccc(C2C(C(=O)c3ccc(C)o3)=C(O)C(=O)N2c2cc(C)on2)cc1 (stereo not given)
7 | inactive | > 100 µM (inactive) | CC1CCCCC1NC(=O)COC(=O)c1c2c(nc3ccccc13)/C(=C/c1ccco1)CC2 (stereo not given)
8 | inactive | inactive | COc1ccc(S(=O)(=O)Nc2ccc(-c3nc4ccc(-c5nc6ccc(C)c(S(=O)(=O)O)c6s5)cc4s3)cc2)cc1
9 | > 100 µM (inactive) | > 100 µM (inactive) | COc1cc(Br)cc(C2C(C(=O)c3ccc(C)o3)=C(O)C(=O)N2Cc2ccccc2)c1OC (stereo not given)
10 | inactive | 4.07 µM | Cc1ccc2nc(-c3ccc4nc(-c5ccc(NC(=O)c6ccccc6)cc5)sc4c3)sc2c1S(=O)(=O)O
11 | 2.13 µM | 1.98 µM | Cc1ccc2nc(-c3ccc4nc(-c5ccc6nc(-c7ccc8nc(-c9ccc(N)cc9)sc8c7)sc6c5)sc4c3)sc2c1S(=O)(=O)O
12 | > 26.5 µM (inactive) | inactive | NS(=O)(=O)c1ccc2nc(NC(=O)c3ccc4ncoc4c3)sc2c1
13 | > 100 µM (inactive) | > 100 µM (inactive) | Nc1c(C(=O)Nc2ccccc2F)sc2nc(-c3ccco3)ccc12
14 | 5.38 µM | 2.75 µM | Cc1ccc2nc(-c3ccc4nc(-c5ccc(NC(=O)c6ccc(F)cc6)cc5)sc4c3)sc2c1S(=O)(=O)O
15 | > 100 µM (inactive) | > 100 µM (inactive) | NC(=S)N/N=C/c1ccc(C23CC4CC(CC(C4)C2)C3)cc1
16 | > 100 µM (inactive) | > 100 µM (inactive) | CN(C)S(=O)(=O)c1cccc(NC(=S)N/N=C/c2cc(Br)ccc2O)c1
17 | inactive | inactive | Cc1ccc2nc(-c3ccc(NC(=O)c4ccc5ncoc5c4)cc3)sc2c1
18 | > 100 µM (inactive) | > 100 µM (inactive) | CCOc1ccc(N2C(=O)C3Sc4[nH]c(=O)sc4C(/C=C/c4ccccc4)C3C2=O)cc1 (stereo not given)
19 | inactive | > 100 µM (inactive) | CN(C)c1ccc(O)c2c1C[C@H]1C[C@H]3[C@H](N(C)C)C(=O)C(C(N)=O)=C(O)[C@@]3(O)C(=O)C1=C2O
20 | > 100 µM (inactive) | > 100 µM (inactive) | COc1ccc(N=Nc2ccc(O)c3ncccc23)c(S(=O)(=O)N(C)C)c1
21 | > 100 µM (inactive) | > 100 µM (inactive) | CCc1cc2c(=O)n(Cc3ccco3)c(SCc3c(C)noc3C)nc2s1

Row | IC50 (NS3h 1b (con1)) | IC50 (NS3h 2a (JFH1)) | Compound
22 | – | 2.09 µM and > 28 µM (inactive) | Cc1ccc2nc(-c3ccc4nc(-c5ccc(NC(=O)c6ccc7nc(-c8ccc(NC(=O)OCC9c%10ccccc%10-c%10ccccc%109)cc8)sc7c6)cc5)sc4c3)sc2c1S(=O)(=O)O
23 | > 100 µM (inactive) | > 100 µM (inactive) | O=C1OC(c2ccc(F)cc2)=C/C1=C/c1ccc([N+](=O)[O-])o1
24 | > 100 µM (inactive) | > 100 µM (inactive) | Cc1ccc2nc(-c3ccc(NC(=O)c4ccc(F)cc4)cc3)sc2c1
25 | 7.85 µM | 4.39 µM | Cc1ccc2nc(-c3ccc4nc(-c5ccc(NC(=O)c6ccc(N)cc6)cc5)sc4c3)sc2c1S(=O)(=O)O
26 | > 100 µM (inactive) | > 100 µM (inactive) | COc1cc2oc(=O)cc(-c3ccc(-c4ccc(CO)cc4)cc3)c2c(OC)c1OC
27 | > 100 µM (inactive) | > 100 µM (inactive) | Cc1ccc(C(=O)C2=C(O)C(=O)N(Cc3ccccc3)C2c2cc(Cl)cc(Cl)c2)o1 (stereo not given)
28 | > 38.1 µM (inactive) | > 100 µM (inactive) | Cc1ccc(/C=C/C(=O)Nc2ccc([N+](=O)[O-])c(NC(=O)/C=C/c3ccc(C)o3)c2)o1
29 | > 100 µM (inactive) | > 100 µM (inactive) | CCCCOc1ccccc1C(=O)NNC(=S)NC(=O)c1ccccc1[N+](=O)[O-]
30 | > 100 µM (inactive) | > 100 µM (inactive) | CC(=O)c1ccc(-c2cccc(-c3cc(=O)oc4ccc(C(C)(C)C)cc34)c2)cc1
31 | inactive | 4.96 µM | Cc1ccc2nc(-c3ccc4nc(-c5ccc(NC(=O)c6ccc(C(C)(C)C)cc6)cc5)sc4c3)sc2c1S(=O)(=O)O
32 | > 100 µM (inactive) | > 100 µM (inactive) | C/C(=N\NC(N)=S)c1cc(-c2ccccc2)c(-c2ccccc2)s1
33 | > 100 µM (inactive) | > 100 µM (inactive) | CCOc1ccc(C2C(C(=O)c3ccc(C)o3)=C(O)C(=O)N2Cc2ccco2)cc1 (stereo not given)
34 | > 100 µM (inactive) | > 100 µM (inactive) | COc1ccc([C@H]2C[C@@H](c3ccccc3)Oc3cc(OC)c(OC)c(OC)c32)cc1
35 | 7.57 µM | 2.52 µM | Cc1ccc2nc(-c3ccc4nc(-c5ccc(NC(=O)c6ccc7nc(-c8ccc(N)cc8)sc7c6)cc5)sc4c3)sc2c1S(=O)(=O)O
36 | > 100 µM (inactive) | > 100 µM (inactive) | Cc1ccc2nc(-c3ccc(NC(=O)c4ccc(F)cc4)cc3)sc2c1S(=O)(=O)O
37 | inactive | > 10.9 µM (inactive) | NS(=O)(=O)c1ccc2nc(NC(=O)c3ccc4ncsc4c3)sc2c1
38 | 3.69 µM | 3.35 µM | Cc1ccc(C(=O)Nc2ccc(-c3nc4ccc(-c5nc6ccc(C)c(S(=O)(=O)O)c6s5)cc4s3)cc2)cc1
39 | 4.31 µM | 2.66 µM | Cc1ccc2nc(-c3ccc4nc(-c5ccc(NC(=O)c6ccc(Cl)cc6)cc5)sc4c3)sc2c1S(=O)(=O)O
40 | inactive | inactive | Cc1ccc2nc(-c3ccc4nc(NC(=O)c5ccc6ncoc6c5)sc4c3)sc2c1
41 | > 100 µM (inactive) | > 100 µM (inactive) | O=C(NC(=S)Nc1ccc(-c2ccc(CO)o2)cc1)c1cccs1
42 | > 100 µM (inactive) | > 100 µM (inactive) | COc1cc(Br)cc(C2C(C(=O)c3ccc(C)o3)=C(O)C(=O)N2Cc2ccco2)c1OC (stereo not given)

Row | IC50 (NS3h 1b (con1)) | IC50 (NS3h 2a (JFH1)) | Compound
43 | > 33.2 µM (inactive) | > 80.3 µM (inactive) | COc1cc(OC)c2c(-c3ccccc3)cc(=O)oc2c1[C@H](CCN1CCN(c2ccccc2)CC1)c1ccc(N(C)C)cc1
44 | > 100 µM (inactive) | > 100 µM (inactive) | O=c1c2c(-c3ccco3)csc2nc(SCc2cn3ncccc3n2)n1-c1ccccc1
45 | inactive | > 100 µM (inactive) | C=C1c2cccc(O)c2C(O)=C2C(=O)[C@]3(O)C(O)=C(C(N)=O)C(=O)[C@@H](N(C)C)[C@@H]3[C@@H](O)[C@H]12
46 | > 100 µM (inactive) | > 100 µM (inactive) | CCN(CC)S(=O)(=O)c1cccc(C(=O)N/N=C/c2ccc(O)c(O)c2O)c1
47 | inactive | inactive | Cc1ccc2nc(-c3ccc4nc(-c5ccc(N)cc5)sc4c3)sc2c1S(=O)(=O)O
48 | > 100 µM (inactive) | > 100 µM (inactive) | O=c1c(O)cccc2cc(O)c(O)c(O)c12
49 | > 100 µM (inactive) | > 100 µM (inactive) | CCCCOc1ccc(C2C(C(=O)c3ccc(C)o3)=C(O)C(=O)N2c2cc(C)on2)cc1 (stereo not given)
50 | > 100 µM (inactive) | > 100 µM (inactive) | CCCCCCCCCc1nc2sc3c(c2c(=O)n1NC(=O)c1ccccc1[N+](=O)[O-])CC(C)(C)OC3
51 | 6.85 µM | 4.98 µM | COC(=O)c1ccc(C(=O)Nc2ccc(-c3nc4ccc(-c5nc6ccc(C)c(S(=O)(=O)O)c6s5)cc4s3)cc2)cc1
52 | inactive | 6.15 µM | Cc1ccc2nc(-c3ccc4nc(-c5ccc(NC(=O)c6ccc(N(C)C)cc6)cc5)sc4c3)sc2c1S(=O)(=O)O
53 | 5.93 µM | 3.21 µM | Cc1ccc(NC(=O)Nc2ccc(-c3nc4ccc(-c5nc6ccc(C)c(S(=O)(=O)O)c6s5)cc4s3)cc2)cc1
54 | 8.41 µM | 5.7 µM | COc1ccc(C(=O)Nc2ccc(-c3nc4ccc(-c5nc6ccc(C)c(S(=O)(=O)O)c6s5)cc4s3)cc2)cc1
55 | > 100 µM (inactive) | > 100 µM (inactive) | Cc1cc(N2C(=O)C(O)=C(C(=O)c3ccc(C)o3)C2c2cc(Cl)cc(Cl)c2)no1 (stereo not given)
56 | > 100 µM (inactive) | > 100 µM (inactive) | N#C/C(=C\c1ccc(O)c(O)c1)S(=O)(=O)c1ccccc1
57 | > 100 µM (inactive) | > 100 µM (inactive) | CC(C)C(C)(C#N)NC(=O)CSc1nc2scc(-c3ccco3)c2c(=O)n1-c1ccccc1 (stereo not given)
58 | > 100 µM (inactive) | > 100 µM (inactive) | CCCCCOc1ccc(C2C(C(=O)c3ccc(C)o3)=C(OC)C(=O)N2c2cc(C)on2)cc1 (stereo not given)
59 | 6.56 µM | 6.04 µM | Cc1ccc2nc(-c3ccc4nc(-c5ccc(NC(=O)c6ccc(NC(=O)OCC7c8ccccc8-c8ccccc87)cc6)cc5)sc4c3)sc2c1S(=O)(=O)O
60 | > 16.4 µM (inactive) | > 100 µM (inactive) | O=C(Nc1nc(-c2ccco2)c(-c2ccco2)s1)C1CCC1
61 | > 24 µM (inactive) | > 100 µM (inactive) | Cc1ccc2nc(-c3ccc(NC(=S)Nc4ccccc4Br)cc3)sc2c1
62 | 2.93 µM | 1.71 µM | Cc1ccc2nc(-c3ccc4nc(-c5ccc(NC(=O)c6ccc7ccccc7c6)cc5)sc4c3)sc2c1S(=O)(=O)O
63 | > 100 µM (inactive) | > 100 µM (inactive) | COc1c(N2CCN(C(=S)NCc3ccccc3)C(C)C2)c(F)cc2c(=O)c(C(=O)O)cn(C3CC3)c12 (stereo not given)
